Measurements from ChEMBL document CHEMBL3885881, “DrugMatrix”.

Species on record: Rattus norvegicus
Assay: DrugMatrix - Regimen: Daily Repeat
Format: toxicity, organism-based, Sprague-Dawley
Design: regimen Daily Repeat, gender Male, age 6-8 weeks
Details: in vivo, po, 1500 mg/kg, route oral GAVAGE, dose level High, vehicle .5 % CMC; for ABSOLUTE BASOPHIL / ABSOLUTE EOSINOPHIL / ABSOLUTE LYMPHOCYTE / ABSOLUTE MONOCYTE / ABSOLUTE SEGMENTED NEUTROPHIL / BASOPHIL / EOSINOPHIL / ERYTHROCYTE COUNT / HEMATOCRIT / HEMOGLOBIN / LEUKOCYTE COUNT / LYMPHOCYTE / MEAN CORPUSCULAR HEMOGLOBIN / MEAN CORPUSCULAR HEMOGLOBIN CONCENTRATION / MEAN CORPUSCULAR VOLUME / MONOCYTE / NEUTROPHIL / NUCLEATED RED BLOOD CELLS / PLATELET COUNT: tissue Blood; for ALANINE AMINOTRANSFERASE / ALBUMIN / ALKALINE PHOSPHATASE / ASPARTATE AMINOTRANSFERASE / BLOOD UREA NITROGEN / CARBON DIOXIDE / CHLORIDE / CHOLESTEROL / CREATINE PHOSPHOKINASE / CREATININE / GLUCOSE / LACTATE DEHYDROGENASE / LIPASE / PHOSPHORUS / POTASSIUM / SODIUM / TOTAL BILIRUBIN / TOTAL PROTEIN / URIC ACID: tissue Plasma

## CCOC(=O)[C@H](CCc1ccccc1)N[C@@H](C)C(=O)N1[C@H](C(=O)O)C[C@@H]2CCC[C@@H]21
72 h, time 3 day
  ABSOLUTE BASOPHIL: 0 CELLS/uL
  ABSOLUTE EOSINOPHIL: 134.33 CELLS/uL
  ABSOLUTE LYMPHOCYTE: 16266.67 CELLS/uL
  ABSOLUTE MONOCYTE: 0 CELLS/uL
  ABSOLUTE SEGMENTED NEUTROPHIL: 1032.33 CELLS/uL
  BASOPHIL: 0%
  EOSINOPHIL: 0.67%
  ERYTHROCYTE COUNT: 5.12 x10E6/uL
  HEMATOCRIT: 34.53%
  HEMOGLOBIN: 13.77 G/DL
  LEUKOCYTE COUNT: 17.43 x10E3/uL
  LYMPHOCYTE: 93%
  MEAN CORPUSCULAR HEMOGLOBIN: 26.9 pg
  MEAN CORPUSCULAR HEMOGLOBIN CONCENTRATION: 39.93 G/DL
  MEAN CORPUSCULAR VOLUME: 67.37 fL
  MONOCYTE: 0%
  NEUTROPHIL: 6.33%
  NUCLEATED RED BLOOD CELLS: 0.33 /100WBC
  PLATELET COUNT: 1317.67 x10E3/uL
  ALANINE AMINOTRANSFERASE: 41.33 u/L
  ALBUMIN: 4.1 G/DL
  ALKALINE PHOSPHATASE: 454.33 u/L
  ASPARTATE AMINOTRANSFERASE: 81.67 u/L
  BLOOD UREA NITROGEN: 30.67 mg/dL
  CARBON DIOXIDE: 21.67 mmol/L
  CHLORIDE: 104.67 MEQ/L
  CHOLESTEROL: 56.67 mg/dL
  CREATINE PHOSPHOKINASE: 460 u/L
  CREATININE: 0.26 mg/dL
  GLUCOSE: 192.67 mg/dL
  LACTATE DEHYDROGENASE: 379.67 u/L
  LIPASE: 8 u/L
  PHOSPHORUS: 12.53 mg/dL
  POTASSIUM: 7.28 MEQ/L
  SODIUM: 143.5 MEQ/L
  TOTAL BILIRUBIN: 0.17 mg/dL
  TOTAL PROTEIN: 5.9 G/DL
  URIC ACID: 1.93 mg/dL
120 h, time 5 day
  ABSOLUTE BASOPHIL: 0 CELLS/uL
  ABSOLUTE EOSINOPHIL: 56.33 CELLS/uL
  ABSOLUTE LYMPHOCYTE: 15250 CELLS/uL
  ABSOLUTE MONOCYTE: 259.67 CELLS/uL
  ABSOLUTE SEGMENTED NEUTROPHIL: 1034 CELLS/uL
  BASOPHIL: 0%
  EOSINOPHIL: 0.33%
  ERYTHROCYTE COUNT: 5.8 x10E6/uL
  HEMATOCRIT: 35.77%
  HEMOGLOBIN: 14.07 G/DL
  LEUKOCYTE COUNT: 16.6 x10E3/uL
  LYMPHOCYTE: 92%
  MEAN CORPUSCULAR HEMOGLOBIN: 24.3 pg
  MEAN CORPUSCULAR HEMOGLOBIN CONCENTRATION: 39.37 G/DL
  MEAN CORPUSCULAR VOLUME: 61.63 fL
  MONOCYTE: 1.67%
  NEUTROPHIL: 6%
  NUCLEATED RED BLOOD CELLS: 0 /100WBC
  PLATELET COUNT: 1413.67 x10E3/uL
  ALANINE AMINOTRANSFERASE: 55.33 u/L
  ALBUMIN: 4.33 G/DL
  ALKALINE PHOSPHATASE: 583.33 u/L
  ASPARTATE AMINOTRANSFERASE: 89.33 u/L
  BLOOD UREA NITROGEN: 31.33 mg/dL
  CARBON DIOXIDE: 29 mmol/L
  CHLORIDE: 102 MEQ/L
  CHOLESTEROL: 35 mg/dL
  CREATINE PHOSPHOKINASE: 314.67 u/L
  CREATININE: 0.26 mg/dL
  GLUCOSE: 150.33 mg/dL
  LACTATE DEHYDROGENASE: 374.33 u/L
  LIPASE: 8.67 u/L
  PHOSPHORUS: 11.03 mg/dL
  POTASSIUM: 7.1 MEQ/L
  SODIUM: 143.93 MEQ/L
  TOTAL BILIRUBIN: 0.27 mg/dL
  TOTAL PROTEIN: 6.3 G/DL
  URIC ACID: 1.6 mg/dL
